In US9029589B2, “Phenyl alkyl carbamate derivative compound and pharmaceutical composition containing the same” (Bio-Pharm Solutions Co., Ltd., priority 2011, dated 2015):

Columns and labels:
Type in all cases: in vivo
Settings in all cases: intraperitoneal, at time of maximum effect, 50% of muscle relaxation activity vs vehicle only (100%)
male mice (ICR) [1] = assay: Muscle relaxation activity by grip strength (forelimbs)
Protocol: (§1) For testing, male mice (ICR) were purchased from ORIENT BIO INC. (Korea), divided into several groups with 6 mice in each group, and were adapted for 4-5 days. The mice having the weight ranging from 19 g to 26 g were employed for the test. The pharmacological effect of the test compounds on muscle relaxation was evaluated by Rotarod test, grip strength test, and muscular force (wire hang) test. All mice were adapted to the test environment at one hour before starting the tests. The pharmacological effects of all the test compounds were evaluated by administration through peritoneal cavity of the mice (10 ul/g, bw).
A grip strength test using the test animals' forelimbs was performed using an instrument equipped with triangle ring and designed so as to easily grip with the forelimbs of experimental animals, manufactured from Ugo Basile Inc. (Ugo Basile, Model 47106, Italy). The test was conducted before and after administration of the compounds to evaluate the effects thereof. […] The mouse was made to grip the rod with its forelimbs, and its tail was pulled, where the force at which the mouse detached from the rod was recorded. The instrument indicated the force in grams. All of the mice were given 3 opportunities for test, and the 3 highest values among the test opportunities were selected and the mean value was used as the test result. This experimentation was conducted according to the method described in the reference, ‘Nevins et al. (1993) Quantitative grip strength assessment as a means of evaluating muscle relaxation in mice. Psychopharmacol. 110: 92-96’.
(§2) The results of muscle relaxation activity of the phenyl alkyl carbamate derivative compounds measured in above Experimental Examples 1 to 3 are shown in following Table 3.

male mice (ICR) [2] = assay: Muscle relaxation activity by wire hang
Protocol: as §1
This experimentation was conducted using a metal wire of 30 cm in length, which was suspended between two pillars at a height of about 40 cm from the bottom covered with a soft pad. […] Each mouse was made to grip the wire using two forelimbs, and the elapse time before the mouse fell off from the wire to the pad on the bottom was recorded in seconds. Each mouse was given 5 opportunities for this test at an interval of 2 minutes period. The highest 3 records among the test opportunities were selected and the mean value was used as the test result. This experimentation was conducted according to the method described in the reference, ‘Jacqueline N. Crawley (1999) Behavioral phenotyping of transgenic and knockout mice: experimental design and evaluation of general health, sensory functions, motor abilities, and specific behavioral tests. Brain Res. 835: 18-26’.
as §2

male mice (ICR) [3] = assay: Muscle relaxation activity by residence time on a rotarod rotating at a fixed speed (15 r.p.m.)
Protocol: as §1
All the mice to be tested were preliminarily trained for 5 minutes on a rod rotating at the rate of 15 revolutions per a minute. The mice that could not remain on the rod without falling off therefrom for a minimum of 2 minutes were excluded from this testing. After the training, all the mice were allowed to rest for 45-60 minutes. Before the administration of the test compounds, the mice were subjected to a further training for one minute on the rod rotating under the same condition, where the mice falling off from the rod were excluded from this experimentation. […] In case a mouse stays on the rod until the test is finished, the time was recorded as 10 minutes. As test time for evaluation, a maximum of 10 minutes was applied. This experimentation was conducted according to the method described in the reference, ‘Yasuda et al. (2005) Antipyretic, analgesic and muscle relaxant activities of Pueraria isoflavonoids and their metabolites from Pueraria lobata Ohwi—a traditional Chinese drug. Biol. Pharm. Bull. 28: 1224-1228’.
as §2

SMILES	MR test (ED50) II = Grip strength (male mice (ICR) [1])	MR test (ED50) III = Wire hang (male mice (ICR) [2])	MR test (ED50) I = Fixed 15 r.p.m. Rotarod (male mice (ICR) [3])
CO[C@@H](c1ccccc1Cl)[C@H](C)OC(N)=O [Example 124, 1-(2-chlorophenyl)-(S)-1-methoxypropyl-(S)-2-carbamate]	66.4 mg/kg, bw	34.8 mg/kg, bw	35.9 mg/kg, bw
COCO[C@@H](c1ccccc1Cl)[C@H](C)OC(N)=O [Example 1, 1-(2-chlorophenyl)-(S)-1-methoxymethoxypropyl-(S)-2-carbamate]	115.2 mg/kg, bw	37.0 mg/kg, bw	55.0 mg/kg, bw
C[C@H](OC(N)=O)[C@@H](OC(N)=O)c1ccccc1Cl [Example 247, 1-(2-chlorophenyl)-(S)-1-carbamoyloxypropyl-(S)-2-carbamate]	264.3 mg/kg, bw	–	–
C[C@@H](OC(N)=O)[C@H](OC(N)=O)c1ccccc1Cl [Example 250, 1-(2-chlorophenyl)-(R)-2-carbamoyloxypropyl-(R)-1-carbamate]	225.6 mg/kg, bw	–	–
CO[C@@H](c1ccccc1F)[C@H](C)OC(N)=O [Example 135, 1-(2-fluorophenyl)-(S)-1-methoxypropyl-(S)-2-carbamate]	145.6 mg/kg, bw	26.2 mg/kg, bw	60.0 mg/kg, bw
COCO[C@H](c1ccccc1I)[C@@H](C)OC(N)=O [Example 91, 1-(2-iodophenyl)-(R)-1-methoxymethoxypropyl-(R)-2-carbamate]	–	24.4 mg/kg, bw	30.1 mg/kg, bw
CO[C@@H](c1ccccc1I)[C@H](C)OC(N)=O [Example 143, 1-(2-iodophenyl)-(S)-1-methoxypropyl-(S)-2-carbamate]	61.0 mg/kg, bw	33.5 mg/kg, bw	13.0 mg/kg, bw
